Data from US5597798A, “Taxol and epidermal growth factor used to enhance treatment of ovarian cancer” (The Regents of the University of California, priority 1994, dated 1997).
Read-outs that look alike come from different tables or passages of the source.

How the values were obtained:
[1] = system: 2008 human ovarian carcinoma cells; experiment: Colony forming assay, effect of EGF on sensitivity to cytotoxic agents; assay type: cell-based
cellular cAMP = experiment: Determination of cellular cAMP content; assay type: cell-based
2008 cells = experiment: Colony forming (colonogenic) assay, effect of TPA, phorbol and staurosporine on DDP sensitivity
human EGF receptor = experiment: Expression of human EGF receptor in transfected C127 cells (monoclonal antibody 528 staining); assay type: cell-based; conditions: Desferrioxamine 10 μM for 60 hs
[2] = system: C127 mouse fibroblasts transfected with the human EGF receptor gene; experiment: Tetrazolium (MTT) growth rate assay, DDP sensitivity; assay type: cell-based
Method: Expression of the transferrin receptor gene is normally under the control of the transferrin […], and is regulated by iron (Owen and Kuhn, EMBO J. 6:1287 (1987)). Incubation with the iron chelator desferrioxamine induces expression of the transferrin receptor gene (Bridges and Cudkowicz, J. Biol. Chem. 259:12970 (1984)). […] Closed squares, transfected […] mouse fibroblasts pretreated with desferrioxamine; open squares, untreated cells. […] Louis, Mo.) was prepared at 1 mg/ml in DME media and on day 7, 50 μl are added to the microculture wells. After a 4 h incubation at 37° C., all the media was removed from each well, and 150 μl of 100% DMSO (dimethyl sulfoxide) was added to solubilize the MTT-formazan product. After thorough mixing, absorbance at 540 nm was measured with a Molecular Devices Vmax Kinetic microplate reader.

[3] = EGF and the cytotoxic agent concurrently for 1 h
[4] = mean ± SD of at least 3 experiments
[5] = read-out: IC50 in presence of EGF, EGF and the cytotoxic agent concurrently for 1 h
[6] = Homo sapiens, Ovarian carcinoma cell, 1 h, read-out: IC50 in absence of EGF

N.N.O=C([O-])C1(C(=O)[O-])CCC1.[Pt+2] [carboplatin]
effect of EGF on sensitivity of 2008 cells to the agent (in words) [1, 3]: significant increase in sensitivity
Dose modifying factor (ratio of the IC50 values in control and EGF-treated cells) [1, 4]: 1.8 ± 0.4
IC50 ([1]; read-out: IC50 in absence of EGF, cytotoxic agent for 1 h, no EGF): 120 µM
IC50 [1, 5]: 67 µM

C=C[C@@]1(C)CC(=O)[C@]2(O)[C@@]3(C)[C@@H](O)CCC(C)(C)[C@@H]3[C@H](O)[C@H](OC(C)=O)[C@@]2(C)O1 [Forskolin]
increase in cAMP content (cellular cAMP): 297 fold
cAMP level, 10 min. mean (cellular cAMP; 10 min treatment, means of 6 experiments): 2135.0 pmol/mg protein
cAMP level, 60 min. mean (cellular cAMP; 60 min treatment, means of 6 experiments): 6365.0 pmol/mg protein

CN[C@@H]1C[C@H]2O[C@@](C)([C@@H]1OC)n1c3ccccc3c3c4c(c5c6ccccc6n2c5c31)C(=O)NC4 [staurosporine]
effect of staurosporine by itself on sensitivity to DDP (2008 cells; control experiments): did not enhance or inhibit sensitivity to DDP
survival, % of that produced by DDP alone (2008 cells; staurosporine pretreatment 1 h, then DDP and TPA (all three agents)): 96%

CC1=C[C@H]2[C@@]3(O)[C@H](C)[C@@H](O)[C@]4(O)[C@H]([C@@H]3C=C(CO)C[C@]2(O)C1=O)C4(C)C [phorbol]
effect of phorbol on DDP sensitivity (2008 cells; 10^7 M phorbol for 1-h with DDP): failed to enhance DDP sensitivity, and, in fact slightly reduced it

N[C@@H](Cc1ccc(N(CCCl)CCCl)cc1)C(=O)O [melphalan]
Dose modifying factor (ratio of the IC50 values in control and EGF-treated cells) [1]: 1.4 ± 0.4
effect of EGF on sensitivity of 2008 cells to the agent (in words) [1]: the effect did not reach the level of statistical significance
IC50 [1, 6]: 12 µM
IC50 ([1]; read-out: IC50 in presence of EGF): 9 µM

CC(=O)O[C@H]1C(=O)[C@@]2(C)[C@H]([C@H](OC(=O)c3ccccc3)[C@]3(O)C[C@H](OC(=O)[C@H](O)[C@@H](NC(=O)c4ccccc4)c4ccccc4)C(C)=C1C3(C)C)[C@]1(OC(C)=O)CO[C@@H]1C[C@@H]2O [taxol]
effect of EGF on sensitivity of 2008 cells to the agent (in words) [1, 3]: significant increase in sensitivity
IC50 [1, 6]: 0.01 µM
IC50 ([1]; Homo sapiens, Ovarian carcinoma cell, 1 h, read-out: IC50 in presence of EGF): 0.007 µM
Dose modifying factor (ratio of the IC50 values in control and EGF-treated cells) [1, 4]: 1.4 ± 0.1

COc1cccc2c1C(=O)c1c(O)c3c(c(O)c1C2=O)C[C@@](O)(C(=O)CO)C[C@@H]3O[C@H]1C[C@H](N)[C@H](O)[C@H](C)O1 [doxorubicin]
effect of EGF on sensitivity of 2008 cells to the agent (in words) [1, 3]: no significant effect
IC50 [1, 6]: 1.5 µM
Dose modifying factor (ratio of the IC50 values in control and EGF-treated cells) [1, 4]: 1.1 ± 0.2
IC50 [1, 5]: 1.4 µM

CC(=O)N(O)CCCCCNC(=O)CCC(=O)N(O)CCCCCNC(=O)CCC(=O)N(O)CCCCCN [desferrioxamine]
increase in number of human EGF receptors (human EGF receptor): approximately 2 fold
modulation of DDP sensitivity in the absence of EGF ([2]; 10 μM desferrioxamine, no EGF): did not modulate the sensitivity of transfected C127 cells in the absence of EGF
toxicity to transfected C127 mouse fibroblasts ([2]; 10 μM, prolonged incubation for 2 weeks): non-toxic
increase in sensitivity to the cytotoxicity of DDP vs control cells ([2]; desferrioxamine treated cells, in the presence of 10 nM EGF): approximately 2 fold

O=c1[nH]cc(F)c(=O)[nH]1 [5-fluorouracil]
effect of EGF on sensitivity of 2008 cells to the agent (in words) [1, 3]: significant increase in sensitivity
IC50 [1, 6]: 20 µM
Dose modifying factor (ratio of the IC50 values in control and EGF-treated cells) [1, 4]: 1.8 ± 0.3
IC50 [1, 5]: 11 µM
